Assay results reported in ChEMBL document CHEMBL3860080, “Development of BCR-ABL degradation inducers via the conjugation of an imatinib derivative and a cIAP1 ligand” (Bioorg Med Chem Lett, 2016).
Activity calls are given as the source filed them. The calls are words filed in the database; no cut-off is given here.

What was measured:
[1] = test system: K562; test: Cytotoxicity against human K562 cells assessed as cell growth inhibition at 30 to 100 uM after 24 hrs by cell counting kit-8 assay; assay type: functional, cell-based
[2] = target: T1, Baculoviral IAP repeat-containing protein 2/Tyrosine-protein kinase ABL1/Breakpoint cluster region protein (Homo sapiens) (UniProt P00519+P11274+Q13490); test: Induction of cIAP1-mediated BCR-ABL protein degradation in human K562 cells assessed as BCR-ABL to beta-tubulin ratio at 100 uM after 8 hrs by Western blot analysis relative to control; assay type: cell-based
T1 sequence (P00519 whole entry, looked up): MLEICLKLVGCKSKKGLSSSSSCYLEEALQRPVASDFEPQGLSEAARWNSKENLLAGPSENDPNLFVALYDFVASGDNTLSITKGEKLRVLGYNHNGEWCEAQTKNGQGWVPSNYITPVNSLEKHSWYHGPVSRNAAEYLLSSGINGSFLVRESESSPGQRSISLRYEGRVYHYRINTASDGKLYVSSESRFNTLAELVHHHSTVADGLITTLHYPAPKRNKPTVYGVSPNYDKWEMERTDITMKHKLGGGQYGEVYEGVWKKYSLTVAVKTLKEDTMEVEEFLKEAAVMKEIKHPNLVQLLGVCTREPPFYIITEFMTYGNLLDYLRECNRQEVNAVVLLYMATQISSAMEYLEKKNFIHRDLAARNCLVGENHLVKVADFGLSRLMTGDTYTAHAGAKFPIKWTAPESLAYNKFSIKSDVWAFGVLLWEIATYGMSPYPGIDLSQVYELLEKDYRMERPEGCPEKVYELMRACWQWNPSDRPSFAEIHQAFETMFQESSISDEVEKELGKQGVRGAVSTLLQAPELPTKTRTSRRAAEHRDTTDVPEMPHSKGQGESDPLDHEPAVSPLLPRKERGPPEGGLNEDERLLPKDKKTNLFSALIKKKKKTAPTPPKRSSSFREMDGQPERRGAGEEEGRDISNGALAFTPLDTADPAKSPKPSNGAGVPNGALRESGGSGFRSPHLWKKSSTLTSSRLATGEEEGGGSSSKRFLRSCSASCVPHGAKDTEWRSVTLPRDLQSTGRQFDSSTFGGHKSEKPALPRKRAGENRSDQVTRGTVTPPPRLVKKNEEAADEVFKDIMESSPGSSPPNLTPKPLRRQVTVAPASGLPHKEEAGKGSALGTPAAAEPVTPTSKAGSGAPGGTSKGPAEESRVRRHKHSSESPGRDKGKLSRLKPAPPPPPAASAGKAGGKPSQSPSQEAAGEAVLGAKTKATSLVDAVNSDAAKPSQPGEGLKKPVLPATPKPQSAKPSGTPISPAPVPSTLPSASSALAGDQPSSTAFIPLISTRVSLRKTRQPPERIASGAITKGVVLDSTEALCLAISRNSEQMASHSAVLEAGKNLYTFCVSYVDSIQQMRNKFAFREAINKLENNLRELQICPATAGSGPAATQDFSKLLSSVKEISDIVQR
T1 sequence (P11274 whole entry, looked up): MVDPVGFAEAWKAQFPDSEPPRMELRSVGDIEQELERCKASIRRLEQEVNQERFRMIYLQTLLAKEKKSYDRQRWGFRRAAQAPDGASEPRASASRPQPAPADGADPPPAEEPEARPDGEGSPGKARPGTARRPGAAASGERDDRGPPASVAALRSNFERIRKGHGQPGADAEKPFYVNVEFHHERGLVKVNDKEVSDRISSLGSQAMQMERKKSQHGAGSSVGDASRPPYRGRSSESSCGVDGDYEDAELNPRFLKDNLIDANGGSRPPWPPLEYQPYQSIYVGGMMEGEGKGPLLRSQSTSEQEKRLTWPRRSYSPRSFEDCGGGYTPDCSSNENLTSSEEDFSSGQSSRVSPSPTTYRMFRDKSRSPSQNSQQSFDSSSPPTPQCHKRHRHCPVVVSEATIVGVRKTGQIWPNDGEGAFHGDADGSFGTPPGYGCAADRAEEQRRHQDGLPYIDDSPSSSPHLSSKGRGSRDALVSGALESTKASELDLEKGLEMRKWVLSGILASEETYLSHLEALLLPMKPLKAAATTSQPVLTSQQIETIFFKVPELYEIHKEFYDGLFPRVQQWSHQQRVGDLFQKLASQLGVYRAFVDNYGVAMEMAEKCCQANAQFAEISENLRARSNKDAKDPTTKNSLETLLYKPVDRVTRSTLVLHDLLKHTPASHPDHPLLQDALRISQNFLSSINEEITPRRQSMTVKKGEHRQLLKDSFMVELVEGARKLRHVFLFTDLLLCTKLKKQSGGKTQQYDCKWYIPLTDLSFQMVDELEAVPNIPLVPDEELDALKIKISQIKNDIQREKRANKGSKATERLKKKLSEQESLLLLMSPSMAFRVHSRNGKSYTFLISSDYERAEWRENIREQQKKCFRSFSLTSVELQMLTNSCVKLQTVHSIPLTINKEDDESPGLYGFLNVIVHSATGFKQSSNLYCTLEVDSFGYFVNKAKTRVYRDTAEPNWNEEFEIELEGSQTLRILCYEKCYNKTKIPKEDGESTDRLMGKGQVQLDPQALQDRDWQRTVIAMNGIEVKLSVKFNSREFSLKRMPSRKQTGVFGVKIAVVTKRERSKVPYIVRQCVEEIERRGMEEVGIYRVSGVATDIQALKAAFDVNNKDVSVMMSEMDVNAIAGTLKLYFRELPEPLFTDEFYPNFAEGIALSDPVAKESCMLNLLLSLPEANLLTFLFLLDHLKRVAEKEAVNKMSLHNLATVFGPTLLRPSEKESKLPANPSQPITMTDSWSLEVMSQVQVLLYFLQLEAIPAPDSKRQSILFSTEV
T1 sequence (Q13490 whole entry, looked up): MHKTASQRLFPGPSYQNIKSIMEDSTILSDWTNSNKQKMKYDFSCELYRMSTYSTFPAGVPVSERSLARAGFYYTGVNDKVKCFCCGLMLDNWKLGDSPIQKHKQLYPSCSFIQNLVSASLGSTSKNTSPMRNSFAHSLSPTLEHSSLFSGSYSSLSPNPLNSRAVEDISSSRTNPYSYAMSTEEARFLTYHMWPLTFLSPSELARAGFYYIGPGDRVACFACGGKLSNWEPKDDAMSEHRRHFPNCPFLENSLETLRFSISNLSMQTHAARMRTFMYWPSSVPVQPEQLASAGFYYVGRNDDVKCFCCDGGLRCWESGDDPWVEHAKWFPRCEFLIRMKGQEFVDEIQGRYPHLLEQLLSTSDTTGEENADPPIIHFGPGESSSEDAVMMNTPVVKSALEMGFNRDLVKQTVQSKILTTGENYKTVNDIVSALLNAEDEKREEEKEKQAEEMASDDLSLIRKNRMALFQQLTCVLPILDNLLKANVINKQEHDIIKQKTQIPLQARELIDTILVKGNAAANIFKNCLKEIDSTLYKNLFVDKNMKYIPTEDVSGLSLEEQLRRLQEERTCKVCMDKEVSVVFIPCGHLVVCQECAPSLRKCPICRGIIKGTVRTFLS

[3] = target: T1, Baculoviral IAP repeat-containing protein 2/Tyrosine-protein kinase ABL1/Breakpoint cluster region protein (Homo sapiens); test: Induction of cIAP1-mediated BCR-ABL protein degradation in human K562 cells assessed as BCR-ABL to beta-tubulin ratio at 30 uM after 24 hrs by Western blot analysis relative to control; assay type: cell-based
[4] = target: T1, Baculoviral IAP repeat-containing protein 2/Tyrosine-protein kinase ABL1/Breakpoint cluster region protein (Homo sapiens); test: Induction of cIAP1-mediated BCR-ABL protein degradation in human K562 cells assessed as BCR-ABL to beta-tubulin ratio at 100 uM after 24 hrs by Western blot analysis relative to control; assay type: cell-based
[5] = target: T1, Baculoviral IAP repeat-containing protein 2/Tyrosine-protein kinase ABL1/Breakpoint cluster region protein (Homo sapiens); test: Induction of cIAP1-mediated BCR-ABL protein degradation in human K562 cells assessed as BCR-ABL to beta-tubulin ratio at 30 uM after 8 hrs by Western blot analysis relative to control; assay type: cell-based
[6] = Cytotoxicity against human K562 cells assessed as cell growth at 30 to 100 uM after 24 hrs by cell counting kit-8 assay relative to control; assay type: functional
[7] = target: T1, Baculoviral IAP repeat-containing protein 2/Tyrosine-protein kinase ABL1/Breakpoint cluster region protein (Homo sapiens); test: Induction of cIAP1-mediated BCR-ABL protein degradation in human K562 cells after 8 hrs by Western blot analysis; assay type: cell-based
[8] = target: T2, Bcr/Abl fusion protein (Homo sapiens) (UniProt P00519+P11274); test: Inhibition of BCR-ABL signaling pathway in human K562 cells assessed as suppression of STAT5 phosphorylation at 100 uM after 8 hrs by Western blot analysis; assay type: cell-based
T2 sequence (P00519 whole entry, looked up, the tested form may be a part): as the sequence (P00519 whole entry, looked up) above
T2 sequence (P11274 whole entry, looked up, the tested form may be a part): as the sequence (P11274 whole entry, looked up) above

[9] = Effect on BCR-ABL protein levels in human K562 cells assessed as BCR-ABL to beta-tubulin ratio at 100 uM after 8 hrs by Western blot analysis relative to control; assay type: ADME, cell-based; settings: k562, 8 h
[10] = target: T2, Bcr/Abl fusion protein (Homo sapiens); test: Inhibition of BCR-ABL phosphorylation in human K562 cells at 100 uM after 8 hrs by Western blot analysis; assay type: cell-based
[11] = target: T2, Bcr/Abl fusion protein (Homo sapiens); test: Inhibition of BCR-ABL signaling pathway in human K562 cells assessed as suppression of CrkL phosphorylation at 100 uM after 8 hrs by Western blot analysis; assay type: cell-based
[12] = target: T2, Bcr/Abl fusion protein (Homo sapiens); test: Inhibition of BCR-ABL signaling pathway in human K562 cells assessed as suppression of STAT5 phosphorylation at 100 uM after 8 hrs in presence of imatinib by Western blot analysis; assay type: cell-based
[13] = target: T2, Bcr/Abl fusion protein (Homo sapiens); test: Inhibition of BCR-ABL signaling pathway in human K562 cells assessed as suppression of CrkL phosphorylation at 100 uM after 8 hrs in presence of imatinib by Western blot analysis; assay type: cell-based
[14] = target: T2, Bcr/Abl fusion protein (Homo sapiens); test: Inhibition of BCR-ABL phosphorylation in human K562 cells at 100 uM after 8 hrs in presence of imatinib by Western blot analysis; assay type: cell-based
[15] = Effect on BCR-ABL protein levels in human K562 cells assessed as BCR-ABL to beta-tubulin ratio at 100 uM after 8 hrs in presence of imatinib by Western blot analysis relative to control; assay type: ADME, cell-based; settings: k562, 8 h

SMILES	growth inhibition (GI) [1]	Activity [2]	Activity [3]	Activity [4]	Activity [5]	Activity [6]	Activity [7]	inhibition [8]	Activity [9]	inhibition [10]	inhibition [11]	inhibition [12]	inhibition [13]	inhibition [14]	Activity [15]
Cc1ccc(NC(=O)c2ccc(CNC(=O)CCCCCCCCCCNC(=O)[C@H](CC(C)C)NC(=O)[C@@H](O)[C@H](N)Cc3ccccc3)cc2)cc1Nc1nccc(-c2cccnc2)n1	Active	94%	14%	8%	77%	–	–	–	–	–	–	–	–	–	–
Cc1ccc(NC(=O)c2ccc(CNC(=O)CCCCNC(=O)[C@H](CC(C)C)NC(=O)[C@@H](O)[C@H](N)Cc3ccccc3)cc2)cc1Nc1nccc(-c2cccnc2)n1.Cl	–	113%	105%	81%	121%	100%	–	–	–	–	–	–	–	–	–
Cc1ccc(NC(=O)c2ccc(CNC(=O)CCCCCCNC(=O)[C@H](CC(C)C)NC(=O)[C@@H](O)[C@H](N)Cc3ccccc3)cc2)cc1Nc1nccc(-c2cccnc2)n1.Cl	Active	17%	23%	3%	59%	–	Dose-dependent effect	Active	27%	Active	Active	–	–	–	–
COC(=O)[C@H](CC(C)C)NC(=O)[C@@H](O)[C@H](N)Cc1ccccc1 [BESTATIN METHYL ESTER]	–	–	–	–	–	–	–	–	–	–	–	Active	Active	Active	99%
